Our source for the mutagenic call values is PubChem BioAssay AID1259407 (Chemical Carcinogenesis Research Information System (CCRIS), 2018).

The subject of the data set is CCRIS mutagenicity, Ames/micronucleus/aberration tests. The data set is described as follows: CCRIS mutagenicity studies.
[1] abbreviates: Test System: AMES SALMONELLA TYPHIMURIUM, Strain/Indicator: TA98, Metabolic Activation: NONE, Method: STANDARD PLATE.
[2] abbreviates: Test System: AMES SALMONELLA TYPHIMURIUM, Strain/Indicator: TA98, Metabolic Activation: RAT, LIVER, S-9, AROCLOR 1254, Method: STANDARD PLATE.
The mark [3] stands for this setting: Test System: AMES SALMONELLA TYPHIMURIUM, Strain/Indicator: TA100, Metabolic Activation: NONE, Method: STANDARD PLATE.
Where [4] appears, read: Test System: AMES SALMONELLA TYPHIMURIUM, Strain/Indicator: TA100, Metabolic Activation: RAT, LIVER, S-9, AROCLOR 1254, Method: STANDARD PLATE.
[5] abbreviates: Test System: AMES SALMONELLA TYPHIMURIUM, Strain/Indicator: TA1535, Metabolic Activation: NONE, Method: STANDARD PLATE.
[6] abbreviates: Test System: AMES SALMONELLA TYPHIMURIUM, Strain/Indicator: TA1535, Metabolic Activation: RAT, LIVER, S-9, AROCLOR 1254, Method: STANDARD PLATE.
Setting [7] is: Test System: AMES SALMONELLA TYPHIMURIUM, Strain/Indicator: TA1537, Metabolic Activation: NONE, Method: STANDARD PLATE.
Where [8] appears, read: Test System: AMES SALMONELLA TYPHIMURIUM, Strain/Indicator: TA1537, Metabolic Activation: RAT, LIVER, S-9, AROCLOR 1254, Method: STANDARD PLATE.

The source made the active and inactive calls. No rule for the calls is given here.

In the case of `CN(C(=O)CN(CCO)CC(=O)N(C)C(C)(C)Cc1ccccc1)C(C)(C)Cc1ccccc1`, the mutagenic call is, setting by setting: (Test System: AMES SALMONELLA TYPHIMURIUM, Strain/Indicator: TA97, Metabolic Activation: HAMSTER, LIVER, S-9, AROCLOR 1254 (10 OR 30%), Method: PREINCUBATION) “inactive; negative”; (Test System: AMES SALMONELLA TYPHIMURIUM, Strain/Indicator: TA97, Metabolic Activation: NONE, Method: PREINCUBATION) “inactive; negative”; (Test System: AMES SALMONELLA TYPHIMURIUM, Strain/Indicator: TA97, Metabolic Activation: RAT, LIVER, S-9, AROCLOR 1254 (10 OR 30%), Method: PREINCUBATION) “inactive; negative”; (Test System: AMES SALMONELLA TYPHIMURIUM, Strain/Indicator: TA98, Metabolic Activation: HAMSTER, LIVER, S-9, AROCLOR 1254 (10 OR 30%), Method: PREINCUBATION) “inactive; negative”; (Test System: AMES SALMONELLA TYPHIMURIUM, Strain/Indicator: TA98, Metabolic Activation: NONE, Method: PREINCUBATION) “inactive; negative”; (Test System: AMES SALMONELLA TYPHIMURIUM, Strain/Indicator: TA98, Metabolic Activation: RAT, LIVER, S-9, AROCLOR 1254 (10 OR 30%), Method: PREINCUBATION) “inactive; negative”. Further, the mutagenic call by setting is: (Test System: AMES SALMONELLA TYPHIMURIUM, Strain/Indicator: TA100, Metabolic Activation: HAMSTER, LIVER, S-9, AROCLOR 1254 (10 OR 30%), Method: PREINCUBATION) “inactive; negative”; (Test System: AMES SALMONELLA TYPHIMURIUM, Strain/Indicator: TA100, Metabolic Activation: NONE, Method: PREINCUBATION) “inactive; negative”; (Test System: AMES SALMONELLA TYPHIMURIUM, Strain/Indicator: TA100, Metabolic Activation: RAT, LIVER, S-9, AROCLOR 1254 (10 OR 30%), Method: PREINCUBATION) “inactive; negative”; (Test System: AMES SALMONELLA TYPHIMURIUM, Strain/Indicator: TA1535, Metabolic Activation: HAMSTER, LIVER, S-9, AROCLOR 1254 (10 OR 30%), Method: PREINCUBATION) “inactive; negative”; (Test System: AMES SALMONELLA TYPHIMURIUM, Strain/Indicator: TA1535, Metabolic Activation: NONE, Method: PREINCUBATION) “inactive; negative”; (Test System: AMES SALMONELLA TYPHIMURIUM, Strain/Indicator: TA1535, Metabolic Activation: RAT, LIVER, S-9, AROCLOR 1254 (10 OR 30%), Method: PREINCUBATION) “inactive; negative”.

As for `CC(=O)OC/C=C(\C)CCC=C(C)C`, the mutagenic call is, setting by setting: (End Point: IN VITRO CHROMOSOMAL ABERRATIONS, Test System: CHINESE HAMSTER OVARY CELLS, Metabolic Activation: NONE) “inactive; negative; precipitation occurred at 100 ug/ml”; (End Point: IN VITRO CHROMOSOMAL ABERRATIONS, Test System: CHINESE HAMSTER OVARY CELLS, Metabolic Activation: RAT, LIVER, S-9, AROCLOR 1254) “inactive; negative; precipitation occurred at 150 ug/ml”.

As for `[O]=[V]([OH])([OH])[OH]`, for the setting “End Point: IN VIVO MICRONUCLEUS, Test System: POLYCHROMATIC ERYTHROCYTES, Species: MOUSE, Strain/Sex: (102/E1 X C3H/E1)F1/MALE, Route: IP INJECTION”, the mutagenic call is “inactive; negative”.

In the case of `C=C(Cl)C=O`, the mutagenic call runs as follows: (Test System: AMES SALMONELLA TYPHIMURIUM, Strain/Indicator: TA100, Metabolic Activation: NONE, Method: LIQUID INCUBATION) “active; positive”; (Test System: AMES SALMONELLA TYPHIMURIUM, Strain/Indicator: TA100, Metabolic Activation: NONE, Method: PREINCUBATION, LIQUID INCUBATION) “active; positive”; (Test System: AMES SALMONELLA TYPHIMURIUM, Strain/Indicator: TA1535, Metabolic Activation: NONE, Method: LIQUID INCUBATION) “active; positive”; (Test System: AMES SALMONELLA TYPHIMURIUM, Strain/Indicator: TA1535, Metabolic Activation: NONE, Method: PREINCUBATION, LIQUID INCUBATION) “active; positive”.

As to `COc1c2ccoc2c(OC)c2oc(=O)ccc12`, the mutagenic call reads like this: under setting [1], “inactive; negative”; (Test System: AMES SALMONELLA TYPHIMURIUM, Strain/Indicator: TA98, Metabolic Activation: RAT, LIVER, S-9, PHENOBARBITAL, Method: STANDARD PLATE) “inactive; negative”.

In the case of `CNCCC=C1c2ccccc2CCc2ccccc21`, the mutagenic call is, setting by setting: under setting [1], “inactive; negative”; under setting [2], “inactive; negative”; under setting [3], “inactive; negative”; under setting [4], “inactive; negative”; under setting [5], “inactive; negative”; under setting [6], “inactive; negative”. Besides, the mutagenic call runs as follows: under setting [7], “inactive; negative”; under setting [8], “inactive; negative”.

For the molecule `Nc1cc(CCO)c(N)c([N+](=O)[O-])c1`, the mutagenic call reads like this: under setting [1], “active; positive”; under setting [2], “active; positive”; under setting [3], “inactive; negative”; under setting [4], “active; positive”; under setting [5], “inactive; negative”; under setting [6], “inactive; negative”. Moreover, the mutagenic call is “inactive; negative” under setting [7]; “inactive; negative” under setting [8]; “active; positive” (Test System: AMES SALMONELLA TYPHIMURIUM, Strain/Indicator: TA1538, Metabolic Activation: NONE, Method: STANDARD PLATE); “active; positive” (Test System: AMES SALMONELLA TYPHIMURIUM, Strain/Indicator: TA1538, Metabolic Activation: RAT, LIVER, S-9, AROCLOR 1254, Method: STANDARD PLATE).

For `CCN(CC)c1ccc(N=Nc2ccccc2)cc1`, the mutagenic call by setting is: (Test System: AMES SALMONELLA TYPHIMURIUM, Strain/Indicator: TA98, Metabolic Activation: RAT, LIVER, MICROSOMES, 4-DIETHYLAMINOAZOBENZENE, Method: PREINCUBATION) “inactive; negative”; (Test System: AMES SALMONELLA TYPHIMURIUM, Strain/Indicator: TA98, Metabolic Activation: RAT, LIVER, MICROSOMES, AROCLOR 1254, Method: PREINCUBATION) “inactive; negative”; (Test System: AMES SALMONELLA TYPHIMURIUM, Strain/Indicator: TA98, Metabolic Activation: RAT, LIVER, MICROSOMES, Method: PREINCUBATION) “inactive; negative”.

As for `BrCc1cc2c3c(cccc3c1)-c1ccccc1-2`, the mutagenic call runs as follows: under setting [1], “active; positive”; under setting [3], “active; positive”.

Take `O[C@H]1C=Cc2ccc3c(sc4ccccc43)c2[C@@H]1O`: the mutagenic call (Test System: AMES SALMONELLA TYPHIMURIUM, Strain/Indicator: TA100, Metabolic Activation: RAT, LIVER, S-9, AROCLOR 1254, Method: PREINCUBATION) was “inactive; negative”.
